Experiment [1] concerns the target T1, hCCR2b (Homo sapiens, UniProt P41597).
T1 sequence (P41597 1-360 isoform P41597-2): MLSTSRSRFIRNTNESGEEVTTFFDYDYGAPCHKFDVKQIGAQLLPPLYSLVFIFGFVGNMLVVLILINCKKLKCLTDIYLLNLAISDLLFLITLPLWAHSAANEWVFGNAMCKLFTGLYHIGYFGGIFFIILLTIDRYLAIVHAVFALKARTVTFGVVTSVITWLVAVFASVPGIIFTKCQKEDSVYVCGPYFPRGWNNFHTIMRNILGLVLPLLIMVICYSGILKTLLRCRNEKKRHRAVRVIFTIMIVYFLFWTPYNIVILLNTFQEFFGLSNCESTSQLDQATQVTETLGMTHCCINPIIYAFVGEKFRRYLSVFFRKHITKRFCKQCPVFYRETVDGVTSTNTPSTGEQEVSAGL
The experiment in a line: CCR2 binding assay ([125I]MCP-1, SPA, CHO cell membranes). On the set-up: expressed in transfected cells; host or cells: CHO cells (membrane preparation). The settings on record: membranes from CHO cells expressing hCCR2b, 50 pM [125I]MCP-1; read-out: Binding hCCR2 (Ki). Put shortly: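 CHO membranes expressing hCCR2b (1–5 µg/well) with 50 pM [125I]MCP-1 and WGA SPA beads in 50 mM HEPES pH 7.4, 5 mM MgCl2, 1 mM CaCl2, 0.1% BSA, 1% DMSO; 90 min RT with agitation. Bound counts on scintillation counter; nonspecific defined by 1000-fold excess unlabeled compound.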

For experiment [2], the target named is T1, hCCR2b. Kind of experiment: Chemotaxis of L1.2-hCCR2b cells towards MCP-1 P8A. It is filed as cell-based. Further details: expressed in transfected cells; host or cells: L1.2 cells (murine pre-B cell line). The settings on record: MCP-1 P8A at EC80, 4-hours incubation. From the text:
L1.2 cells, a murine pre-LB cellline, were transfected with the human CCR2b receptor for use in the transmigration of L1.2 hCCR2b on the chemotaxis system: ChemotX® provided by Neuroprobes (8µm pore size). Monocyte Chemoattractant Protein-1 (MCP-1) stimulation leads to activate the CCR2 receptor and inititates a cascade of events including chemotaxis. MCP-1 ligand will be replaced by MCP-1 P8A protein with genetic modifications to prevent the oligomerization of the protein. L1.2-hCCR2b are incubated in white RPMI 1640, 5% v/v Heat inactivated FCS, 1% v/v penicillin-streptomycin supplemented with 5 mM Butyrate overnight to enhance receptor expression level at the cell surface. L1.2-hCCR2b cells and compounds in DMSO (1% final) are preincubated 15 min in chemotaxis medium and placed in the Upper Chamber of the chemotaxis system. The MCP-1 P8A initially present at its EC80 (concentration of MCP-1 P8A which allows 80% of cell migration) in the Lower Chamber (with compounds to avoid any compound gradient) diffuses through the pores of the membrane and interacts with the CCR2 receptor of cells present in the upper chamber. The tested compounds can also potentially interact with CCR2 receptor and therefore inhibit the migration of the cells from the Upper Chamber to the Lower Chamber. After a 4-hours incubation time at 37°C, 5% CO2, a quantification of the cells which have migrated is performed using the Cyquant (Invitrogen) and a fluorescent reader as a Fluostar (exc: 485nm; emm: 520 nm). Specific migration is assessed by substracting the basal migration of cells without any stimulation. Chemotaxis data were analyzed using the Genedata Screener® software.

SMILES strings stand for the structures. Structures can show the parent of a compound that is named as a salt. Bounds are passed on as bounds.

Turning to `CC1=C(C(=O)N2CCc3ccc(C(F)(F)F)cc3C2)C2(CCN(C3CCOCC3)CC2)OC1=O` [Compound 26, 3-methyl-8-(tetrahydro-2H-pyran-4-yl)-4-{[7-(trifluoromethyl)-3,4-dihydroisoquinolin-2(1H)-yl]carbony}-1-oxa-8-azaspiro[4.5]dec-3-en-2-one], the Ki in experiment [1] and in experiment [2] was under 0.05 µM each time.
Regarding `CC1=C(C(=O)N2CCc3ccc(C(F)(F)F)cc3C2)C2(CCN(C(C)C)CC2)OC1=O` [Compound 62, 8-isopropyl-3-methyl-4-{[7-(trifluoromethyl)-3,4-dihydroisoquinolin-2 (1H)-yl]carbonyl}-1-oxa-8-azaspiro[4.5]dec-3-en-2-one], the Ki in experiment [1] and in experiment [2] was under 0.05 µM in each case.
Regarding `CC1=C(C(=O)N2COc3ccc(C(F)(F)F)cc3C2)C2(CCN(C(C)C)CC2)OC1=O` [Compound 66, 8-isopropyl-3-methyl-4-{[6-(trifluoromethyl)-2H-1,3-benzoxazin-3(4H)-yl]carbonyl}-1-oxa-8-azaspiro[4.5]dec-3-en-2-one], the Ki in experiment [1] and in experiment [2] was under 0.05 µM each time.
On to `CC1=C(C(=O)N2CCN(c3cccc(C(F)(F)F)c3)CC2)C2(CCN(Cc3ccccc3)CC2)OC1=O` [Compound 109, 8-benzyl-3-methyl-4-({4-[3-(trifluoromethyl)phenyl]piperazin-1-yl}carbonyl)-1-oxa-8-azaspiro[4.5]dec-3-en-2-one], for which, in experiment [1], the Ki – broadly, a dissociation constant, usually derived from enzyme kinetics or from competition with a known ligand – was in the range of 0.1 to 0.5 µM.
For the compound `CC1=C(C(=O)N2CCN(c3cccc(Cl)c3)CC2)C2(CCN(Cc3ccccc3)CC2)OC1=O` [Compound 110, 8-benzyl-4-{[4-(3-chlorophenyl)piperazin-1-yl]carbonyl}-3-methyl-1-oxa-8-azaspiro[4.5]dec-3-en-2-one], the Ki in experiment [1] was in the range of 0.5 to 2 µM.
Still for that read-out and setting: under `CC1=C(C(=O)N2CCN(c3cccc(C#N)c3)CC2)C2(CCN(Cc3ccccc3)CC2)OC1=O` [Compound 111, 3-{4-[(8-benzyl-3-methyl-2-oxo-1-oxa-8-azaspiro[4.5]dec-3-en-4-yl)carbonyl]piperazin-1-yl}benzonitrile] stands 0.5 to 2 µM.
As for `CC1=C(C(=O)N2CCN(c3cccc(Cl)c3)CC2)C2(CCN(C)CC2)OC1=O` [Compound 112, 4-{[4-(3-chlorophenyl)piperazin-1-yl]carbonyl}-3,8-dimethyl-1-oxa-8-azaspiro[4.5]dec-3-en-2-one], in experiment [1], the Ki lay within 0.5 to 2 µM.
`CCN1CCC2(CC1)OC(=O)C(C)=C2C(=O)N1CCN(c2ccc(C(F)(F)F)cc2)CC1` [Compound 113, 8-ethyl-3-methyl-4-({4-[4-(trifluoromethyl)phenyl]piperazin-1-yl}carbonyl)-1-oxa-8-azaspiro[4.5]dec-3-en-2-one]: in experiment [1], the Ki lay in the range of 0.5 to 2 µM.
Consider `CCN1CCC2(CC1)OC(=O)C(C)=C2C(=O)N1CCN(c2cc(Cl)cc(Cl)c2)CC1` [Compound 114, 4-{[4-(3,5-dichlorophenyl)piperazin-1-yl]carbonyl}-8-ethyl-3-methyl-1-oxa-8-azaspiro[4.5]dec-3-en-2-one], for which, in experiment [1], the Ki was 0.1 to 0.5 µM.
As for `CC1=C(C(=O)N2CCc3ncc(C(F)(F)F)cc3C2)C2(CCN(C(C)C)CC2)OC1=O` [Compound 115, 8-isopropyl-3-methyl-4-{[3-(trifluoromethyl)-7,8-dihydro-1,6-naphthyridin-6(5H)-yl]carbonyl}-1-oxa-8-azaspiro[4.5]dec-3-en-2-one], the Ki in experiment [1] is under 0.05 µM.
As for `CC1=C(C(=O)N2CCc3ncc(C(F)(F)F)cc3C2)C2(CCN(CCF)CC2)OC1=O` [Compound 116, 8-(2-fluoroethyl)-3-methyl-4-{[3-(trifluoromethyl)-7,8-dihydro-1,6-naphthyridin-6(5H)-yl]carbonyl}-1-oxa-8-azaspiro[4.5]dec-3-en-2-one], the Ki in experiment [1] was under 0.05 µM.
Take `CC1=C(C(=O)N2CCN(c3cccc(C(F)(F)F)c3)CC2)C2(CCN(C(C)C)C2)OC1=O` (centres unmarked) [Compound 117, 7-isopropyl-3-methyl-4-({4-[3-(trifluoromethyl)phenyl]piperazin-1-yl}carbonyl)-1-oxa-7-azaspiro[4.4]non-3-en-2-one]: the Ki in experiment [1] was under 0.05 µM.
The same measure, in the same setting: the result for `CCN1CCC2(C1)OC(=O)C(C)=C2C(=O)N1CCN(c2cccc(C(F)(F)F)c2)CC1` (centres unmarked) [Compound 118, 7-ethyl-3-methyl-4-({4-[3-(trifluoromethyl)phenyl]piperazin-1-yl}carbonyl)-1-oxa-7-azaspiro[4.4]non-3-en-2-one] reads 0.05 to 0.1 µM.
Regarding `CC1=C(C(=O)N2CCc3ncc(C(F)(F)F)cc3C2)C2(CCN(C3CCOCC3)CC2)OC1=O` [Compound 119, 3-methyl-8-(tetrahydro-2H-pyran-4-yl)-4-{[3-(trifluoromethyl)-7,8-dihydro-1,6-naphthyridin-6(5H)-yl]carbonyl}-1-oxa-8-azaspiro[4.5]dec-3-en-2-one], in experiment [1], the inhibition constant Ki is under 0.05 µM.
For `CCN1CCCC2(CC1)OC(=O)C(C)=C2C(=O)N1CCc2ccc(C(F)(F)F)cc2C1` (centres unmarked) [Compound 120, 8-ethyl-3-methyl-4-{[7-(trifluoromethyl)-3,4-dihydroisoquinolin-2(1H)-yl]carbonyl}-1-oxa-8-azaspiro[4.6]undec-3-en-2-one], the Ki in experiment [1] was under 0.05 µM.
Take `CCN1CCCC2(CC1)OC(=O)C(C)=C2C(=O)N1CCN(c2cccc(C(F)(F)F)c2)CC1` (centres unmarked) [Compound 121, 8-ethyl-3-methyl-4-({4-[3-(trifluoromethyl)phenyl]piperazin-1-yl}carbonyl)-1-oxa-8-azaspiro[4.6]undec-3-en-2-one]: the Ki in experiment [1] is under 0.05 µM.
As for `CC1=C(C(=O)N2CCc3ncc(C(F)(F)F)cc3C2)C2(CCN(C)CC2)OC1=O` [Compound 122, 3,8-dimethyl-4-{[3-(trifluoromethyl)-7,8-dihydro-1,6-naphthyridin-6(5H)-yl]carbonyl}-1-oxa-8-azaspiro[4.5]dec-3-en-2-one], in experiment [1], the Ki was under 0.05 µM.
With `CC1=C(C(=O)N2CCN(c3cccc(C(F)(F)F)c3)CC2)C2(CCNCC2)OC1=O` [Example 1, 3-methyl-4-({4-[3-(trifluoromethyl)phenyl]piperazin-1-yl}carbonyl)-1-oxa-8-azaspiro[4.5]dec-3-en-2-one, dihydrochloride salt], in experiment [1], the Ki lay in the range of 0.1 to 0.5 µM.
As to `COCCCN1CCC2(CC1)OC(=O)C(C)=C2C(=O)N1CCN(c2cccc(C(F)(F)F)c2)CC1` [Example 2, 8-(3-methoxypropyl)-3-methyl-4-({4-[3-(trifluoromethyl)phenyl]piperazin-1-yl}carbonyl)-1-oxa-8-azaspiro[4.5]dec-3-en-2-one], the inhibitory constant (Ki) in experiment [1] was under 0.05 µM.
For `CC1=C(C(=O)N2CCN(c3cccc(C(F)(F)F)c3)CC2)C2(CCN(CCc3ccc(F)cc3)CC2)OC1=O` [Example 3, 8-[2-(4-fluorophenyl)ethyl]-3-methyl-4-({4-[3-(trifluoromethyl)phenyl]piperazin-1-yl}carbonyl)-1-oxa-8-azaspiro[4.5]dec-3-en-2-one], the Ki in experiment [1] was under 0.05 µM.
Consider `COCCN1CCC2(CC1)OC(=O)C(C)=C2C(=O)N1CCN(c2cccc(C(F)(F)F)c2)CC1` [Example 4, 8-(2-methoxyethyl)-3-methyl-4-({4-[3-(trifluoromethyl)phenyl]piperazin-1-yl}carbonyl)-1-oxa-8-azaspiro[4.5]dec-3-en-2-one], for which, in experiment [1], the Ki is under 0.05 µM.
With `CC1=C(C(=O)N2CCN(c3cccc(C(F)(F)F)c3)CC2)C2(CCN(CCCc3ccccc3)CC2)OC1=O` [Example 5, 3-methyl-8-(3-phenylpropyl)-4-({4-[3-(trifluoromethyl)phenyl]piperazin-1-yl}carbonyl)-1-oxa-8-azaspiro[4.5]dec-3-en-2-one], in experiment [1], the Ki is under 0.05 µM.
Same read-out and setting: under `COc1ccc(CCN2CCC3(CC2)OC(=O)C(C)=C3C(=O)N2CCN(c3cccc(C(F)(F)F)c3)CC2)cc1` [Example 6, 8-[2-(4-methoxyphenyl)ethyl]-3-methyl-4-({4-[3-(trifluoromethyl)phenyl]piperazin-1-yl]carbonyl)-1-oxa-8-azaspiro[4.5]dec-3-en-2-one, dihydrochloride salt] stands under 0.05 µM.
